Assay results from patent US7863449B2, “Modulators of muscarinic receptors” (Vertex Pharmaceuticals Incorporated, priority 2004, dated 2011).

Tests used:
M1 muscarinic receptor = biological target: T1, M1 muscarinic receptor (Homo sapiens, UniProt P11229); experiment: Functional mobilization of intracellular calcium (FLIPR), M1-CHO cells; format: cell-based; conditions: for Emax: 100% efficacy is the maximum response obtained using Carbachol as a control; for M1 Activity: M1-CHO cells, FLIPR calcium mobilization
T1 construct: expressed in transfected cells; host or cells: CHO (M1-CHO)
T1 sequence (P11229 1-460): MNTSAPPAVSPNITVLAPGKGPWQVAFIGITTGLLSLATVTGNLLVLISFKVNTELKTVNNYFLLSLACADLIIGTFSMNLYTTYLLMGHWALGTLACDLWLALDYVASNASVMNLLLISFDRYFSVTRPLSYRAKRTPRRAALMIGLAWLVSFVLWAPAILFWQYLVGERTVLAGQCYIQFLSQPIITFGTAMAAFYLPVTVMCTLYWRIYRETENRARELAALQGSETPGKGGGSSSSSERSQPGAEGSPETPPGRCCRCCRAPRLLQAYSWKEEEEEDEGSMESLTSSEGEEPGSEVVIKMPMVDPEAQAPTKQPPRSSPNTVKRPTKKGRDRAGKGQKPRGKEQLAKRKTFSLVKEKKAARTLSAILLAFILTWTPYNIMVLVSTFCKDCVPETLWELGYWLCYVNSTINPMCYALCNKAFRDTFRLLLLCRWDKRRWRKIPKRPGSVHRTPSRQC
Experimental: (§1) Functional Mobilization of Intracellular Calcium to Determine Muscarinic Receptor Activity:
(§2) CHO cells expressing muscarinic receptors (M1 to M5) are grown as monolayers in tissue culture flasks at 37° C. in a humidified atmosphere containing 5% CO2 and passaged every 3-5 days. The growth media is Dulbecco's modified eagles medium (DMEM, Gibco Cat# 12430-054), containing 25 mM Hepes and supplemented with Fetal Bovine Serum (Hyclone, cat# SH30071.03), 0.1 mM of MEM non-essential amino acids (GIBCO, Cat# 11140-050), 1 mM MEM Sodium Pyruvate (GIBCO Cat# 11360-070) and 100 units/ml of Penicillin G and 100 μg/ml of Streptomycin (GIBCO Cat# 15140-122). The recombinant muscarinic receptor cell lines are grown under antibiotic pressure with media containing 25 μg/ml zeocin and 500 μg/ml G418 (M1-CHO), 4 μg/ml puromycin, 50 μg/ml zeocin and 2.5 μg/ml blasticidin (M2 and M4-CHO) or 50 μg/ml zeocin and 4 μg/ml puromycin (M3 and M5-CHO).
(§3) Cells are harvested at 80-90% confluence using Versene (GIBCO Cat# 15040-066), collected by centrifugation and seeded 18-24 hrs prior to running the calcium assay at a density of 5,000-10,000 cells/well in […], clear-bottomed 384-well plates (BD Biocoat, poly-D-lysine, Cat#356663). The day of the experiment, the cells are washed with a plate washer (Bioteck Instruments, ELX 405) using bath1 buffer (140-mM NaCl, 4.5-mM KCl, 2-mM CaCl2, 1-mM MgCl2, 10-mM Hepes-Na, 10-mM Glucose, pH 7.4, with NaOH) containing 1 mM Probenecid. Next, the calcium dye Fluo-3 (25 μl/well of Fluo-3 AM at 4 μM, Molecular Probes F-1241, in Bath 1 buffer containing 1 mM Probenecid) is added to the 25 μl of Bath 1 remaining in each well after the plate wash and the dye is loaded at 37° C. in the tissue culture incubator for 60-90 min. The fluorescent dye is removed using the plate washer with Bath 1 containing 1 mM Probenecid, leaving 25 μl/well of this solution after the wash. Alternatively, cells can be loaded with the calcium indicator from Molecular Devices (Calcium 3 Assay Reagents, Cat # R7181) adding 5 μl of a 5× solution dye in Bath 1 containing 1 mM Probenecid (10 ml per dye flask cat# R7182 to generate a solution 20×) to 20 μl of the same buffer. After loading for 60 min, the experiment can be run without having to remove the dye.
(§4) Compounds are prepared at a 2× fold concentration in a 96-well plate (round bottom, Costar Corning cat# 3656), by reconstituting the pre-spotted compounds in bath 1 containing 1 mM probenecid. The final concentration DMSO is 0.5%, and the amount of DMSO is normalized across the assay plate. To determine an agonist action of the compounds on muscarinic receptors, the reconstituted compounds are added (25 μl compound/well) to the cell assay plate (containing 25 μl/well) using the multi-channel robotic system of the FLIPR 3 Instrument (Molecular Devices, Sunnyvale, Calif.). To determine a functional inhibitory action of the compounds on muscarinic receptors, the reconstituted compounds are added (25 μl compound/well) to the assay plate and pre-incubated for 15 min prior to adding 25 μl of Carbachol at 3× the EC80 for each muscarinic subtype. Alternatively, the compounds can be co-applied simultaneously with the agonist. In both assay modes, the fluorescence is recorded for 60 sec (excitation wavelength is […] and emission wavelength 540 nm) using the FLIPR 3 instrument.
(§5) The potency, efficacy and selectivity of the muscarinic compounds were evaluated by screening the compound activity across the whole family (M1 to M5 cells). Compounds were also screened for activity on other proteins such as other GPCRs and ion channels to determine selectivity on M4 receptors.

M4 muscarinic receptor = biological target: T2, M4 muscarinic receptor (Homo sapiens, UniProt P08173); experiment: Functional mobilization of intracellular calcium (FLIPR), M4-CHO cells; format: cell-based; conditions: for Emax: 100% efficacy is the maximum response obtained using Carbachol as a control; for M4 Activity: M4-CHO cells, FLIPR calcium mobilization
T2 construct: expressed in transfected cells; host or cells: CHO (M4-CHO)
T2 sequence (P08173 1-479): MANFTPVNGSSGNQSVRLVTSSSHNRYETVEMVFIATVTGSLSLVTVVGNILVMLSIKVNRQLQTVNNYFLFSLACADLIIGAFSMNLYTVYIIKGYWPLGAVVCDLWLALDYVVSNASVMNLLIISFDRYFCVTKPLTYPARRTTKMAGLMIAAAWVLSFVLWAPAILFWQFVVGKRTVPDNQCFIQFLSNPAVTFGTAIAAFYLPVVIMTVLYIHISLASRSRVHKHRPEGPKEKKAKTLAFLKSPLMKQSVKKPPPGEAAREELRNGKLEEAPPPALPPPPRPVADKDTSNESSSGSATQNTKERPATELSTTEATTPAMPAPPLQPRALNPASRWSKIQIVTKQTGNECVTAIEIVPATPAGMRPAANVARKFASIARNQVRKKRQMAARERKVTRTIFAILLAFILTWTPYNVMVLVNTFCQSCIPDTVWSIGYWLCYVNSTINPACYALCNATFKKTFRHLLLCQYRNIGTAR
Experimental: as §1, §2, §3, §4, §5

Compound | Emax (M1 muscarinic receptor) [%] | M1 Activity (M1 muscarinic receptor) | Emax (M4 muscarinic receptor) [%] | M4 Activity (M4 muscarinic receptor)
CCOC(=O)N1CCC(N2CCC3(CC2)c2ccccc2C(=O)N3Cc2ccccc2)CC1 [compound 20, ethyl 4-(2-benzyl-3-oxospiro[isoindoline-1,4′-piperidine]-1′-yl)piperidine-1-carboxylate] | 25 to 100 | ++ (activity was measured to be from 1.0 μM to 5.0 μM) | < 25 | + (activity was measured to be greater than 5.0 μM)
CC(=O)N1Cc2ccccc2C2(CCN(C3CC4CCC(C4)C3)CC2)C1 (stereo not shown) [compound 21] | 25 to 100 | + (activity was measured to be greater than 5.0 μM) | 25 to 100 | + (activity was measured to be greater than 5.0 μM)
CCOC(=O)N1CCC(CN2CCC3(CC2)CN(C(=O)OCCOC)Cc2ccccc23)CC1 [compound 22] | 25 to 100 | +++ (activity was measured to be less than 1.0 μM) | 25 to 100 | +++ (activity was measured to be less than 1.0 μM)
CCOC(=O)N1CCC(N2CCC3(CC2)CN(C(=O)OCCOC)Cc2ccccc23)CC1 [compound 23] | 25 to 100 | +++ (activity was measured to be less than 1.0 μM) | 25 to 100 | +++ (activity was measured to be less than 1.0 μM)
CCCS(=O)(=O)N1Cc2ccccc2C2(CCN(C3CC4CCC(C3)N4C(=O)O[C@@H]3CCOC3)CC2)C1 (stereo partly shown) [compound 24] | 25 to 100 | +++ (activity was measured to be less than 1.0 μM) | 25 to 100 | +++ (activity was measured to be less than 1.0 μM)
CCOC(=O)N1CCC(N2CCC3(CC2)CN(S(=O)(=O)c2c(C)noc2C)Cc2ccccc23)CC1 [compound 25] | 25 to 100 | +++ (activity was measured to be less than 1.0 μM) | 25 to 100 | +++ (activity was measured to be less than 1.0 μM)
CCOC(=O)N1C2CCC1CC(N1CCC3(CC1)CN(C(=O)OC1CCC1)Cc1ccccc13)C2 (stereo not shown) [compound 27] | 25 to 100 | +++ (activity was measured to be less than 1.0 μM) | 25 to 100 | +++ (activity was measured to be less than 1.0 μM)
CC(=O)N1Cc2ccccc2C2(CCN(C3CCN(C(=O)O[C@@H]4CCOC4)CC3)CC2)C1 [compound 32] | 25 to 100 | +++ (activity was measured to be less than 1.0 μM) | 25 to 100 | +++ (activity was measured to be less than 1.0 μM)
CC(=O)N1Cc2ccccc2C2(CCN(CC3CCCCC3)CC2)C1 [compound 35] | < 25 | + (activity was measured to be greater than 5.0 μM) | < 25 | ++ (activity was measured to be from 1.0 μM to 5.0 μM)
COc1ccc(CN2CCC3(CC2)CN(C(C)=O)Cc2ccccc23)cn1 [compound 37] | 25 to 100 | + (activity was measured to be greater than 5.0 μM) | < 25 | + (activity was measured to be greater than 5.0 μM)
CC(=O)N1Cc2ccccc2C2(CCN(Cc3ccccn3)CC2)C1 [compound 40] | < 25 | + (activity was measured to be greater than 5.0 μM) | < 25 | + (activity was measured to be greater than 5.0 μM)
Cc1ccc2c(c1)C1(CCN(CC3CCOCC3)CC1)OC2=O [compound 41] | 25 to 100 | + (activity was measured to be greater than 5.0 μM) | < 25 | + (activity was measured to be greater than 5.0 μM)
O=C(c1ccccc1)N1CCC(N2CCC3(CC2)c2ccccc2C(=O)N3Cc2ccccc2)CC1 [compound 42] | < 25 | + (activity was measured to be greater than 5.0 μM) | < 25 | + (activity was measured to be greater than 5.0 μM)
CC(=O)N1Cc2ccccc2C2(CCN(CC3CCN(C(=O)O[C@@H]4CCOC4)CC3)CC2)C1 [compound 45] | < 25 | + (activity was measured to be greater than 5.0 μM) | < 25 | + (activity was measured to be greater than 5.0 μM)
CCOC(=O)N1CCC(N2CCC3(CC2)CN(C(=O)c2ccno2)Cc2ccccc23)CC1 [compound 46] | 25 to 100 | +++ (activity was measured to be less than 1.0 μM) | 25 to 100 | +++ (activity was measured to be less than 1.0 μM)
CN(C)C(=O)N1Cc2ccccc2C2(CCN(C3CC4CCC(C3)N4C(=O)O[C@@H]3CCOC3)CC2)C1 (stereo partly drawn) [compound 48, (R)-tetrahydrofuran-3-yl 3-(2-(dimethylcarbamoyl)-2,3-dihydro-1H -spiro[isoquinoline-4,4′-piperidine]-1′-yl)-8-azabicyclo[3.2.1]octane-8-carboxylate] | 25 to 100 | +++ (activity was measured to be less than 1.0 μM) | 25 to 100 | +++ (activity was measured to be less than 1.0 μM)
COC(=O)N1CC(CN2CCC3(CC2)CN(C(C)=O)Cc2ccccc23)C1 [compound 50] | < 25 | + (activity was measured to be greater than 5.0 μM) | < 25 | + (activity was measured to be greater than 5.0 μM)
CCOC(=O)N1CCC(CN2CCC3(CC2)CN(C(=O)Nc2ccccc2)Cc2ccccc23)CC1 [compound 51] | 25 to 100 | +++ (activity was measured to be less than 1.0 μM) | 25 to 100 | +++ (activity was measured to be less than 1.0 μM)
O=C1c2ccccc2C2(CCN(CC3CCCCC3)CC2)N1Cc1ccccc1 [compound 52] | 25 to 100 | + (activity was measured to be greater than 5.0 μM) | < 25 | + (activity was measured to be greater than 5.0 μM)
